What was measured:
[1] = biological target: T1, HIS-tagged recombinant PPAR β/δ protein (Homo sapiens, UniProt Q03181); experiment: CNBr-drug and protein binding experiment, PPARβ/δ; details: Western blotting after 24 h incubation
T1 sequence (Q03181 211-439 limits assumed): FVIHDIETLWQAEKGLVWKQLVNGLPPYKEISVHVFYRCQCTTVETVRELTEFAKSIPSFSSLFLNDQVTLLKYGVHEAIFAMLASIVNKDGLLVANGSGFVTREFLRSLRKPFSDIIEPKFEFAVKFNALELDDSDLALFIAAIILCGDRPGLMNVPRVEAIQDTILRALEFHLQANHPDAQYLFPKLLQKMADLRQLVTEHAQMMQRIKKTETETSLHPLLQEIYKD
Protocol: (§1) Since the computer prediction program predicted that DTMB binds to PPAR transcription factors, CNBr-drug and protein binding experiments were conducted to confirm whether DTMB actually binds to PPAR. To determine the actual degree of drug-protein binding, the reaction of the protein of the PPAR-α, β/δ, γ ligand-binding portion with the DTMB drug-bound CNBr beads was confirmed through Western blotting.
(§2) Specifically, CNBr Sepharose 4B beads were prepared and activated according to the instructions. 100 mg of CNBr-activated Sepharose 4B beads were incubated with drugs or DMSO at 4° C. for 18 h. The drug-bound beads reacted with HIS-tagged recombinant PPAR α, β/δ, and γ proteins. After 24 h of incubation, Western blotting experiments were performed to confirm whether the recombinant proteins bound to the drug-bound beads.

[2] = biological target: T2, HIS-tagged recombinant PPAR γ protein (Homo sapiens, UniProt P37231); experiment: CNBr-drug and protein binding experiment, PPARγ; details: Western blotting after 24 h incubation
T2 sequence (P37231 238-503 limits assumed): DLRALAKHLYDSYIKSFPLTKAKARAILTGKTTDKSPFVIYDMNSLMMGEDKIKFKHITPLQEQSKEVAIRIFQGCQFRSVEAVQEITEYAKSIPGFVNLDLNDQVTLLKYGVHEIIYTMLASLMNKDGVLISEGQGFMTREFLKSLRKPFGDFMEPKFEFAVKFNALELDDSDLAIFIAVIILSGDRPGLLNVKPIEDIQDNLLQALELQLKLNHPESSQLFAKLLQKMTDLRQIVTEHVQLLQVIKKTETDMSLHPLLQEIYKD
Protocol: as §1, §2

HMO6 cell line = experiment: Cell viability assay (MTT), HMO6; type: cell-based; details: HMO6, 48 h, at higher concentrations
Protocol: Cell viability was measured by a chromogenic assay that biologically reduces 3-(4,5-dimethyl-thiazol-2-yl)-2,5-diphenyltetrazolium bromide (MTT) to formazan in living cells. Briefly, cells were cultured in 96-well plates in a final volume of 100 μL. After 24 h, the culture medium was replaced with fresh medium containing DTMB compound, and the cells were cultured for another 48 h. Next, MTT (dissolved in PBS at 5 mg/mL) was added to the culture medium. The cells were cultured in the dark at 37° C. for 1 h, and then the supernatant was removed from the wells. The formazan crystals were dissolved by adding total MTT solvent (4 mM HCl and 0.1% Nonidet P-40, both dissolved in isopropanol), and the absorbance was measured at 570 nm using a microplate reader, Infinite 200 Pro NanoQuant microplate reader (TECAN, Switzerland).

RAW 264.7 macrophages = experiment: NO production inhibition (Griess assay) in LPS-treated macrophages; type: cell-based; details: LPS-induced
Protocol: Previous studies have reported that all three subtypes of PPAR inhibit inflammatory responses through inhibition of the activity and quantitative changes of the NF-κB transcription factor, a major regulator of inflammatory responses.
First, RAW 264.7 macrophages were cultured in a humidified atmosphere of 37° C. in a 5% CO2 incubator with DMEM containing 10% FBS and 1% penicillin/streptomycin. After inducing an inflammatory response in RAW 264.7 macrophages by LPS treatment, the Griess assay (Promega) was performed according to the manufacturer's instructions to measure the concentration of nitrite.

[3] = Body weight and organ weight after 12 weeks of treatment; type: in vivo, mouse; details: DTMB 10 mg/kg orally, 12 weeks (3 months), versus vehicle-treated mice
Protocol: (§3) 5×FAD (Tg6799) mice were purchased from Jackson Laboratory (Bar Harbor, ME, USA), and male transgenic mice were mated with B6/SJL hybrid female mice. Genotyping was performed by PCR analysis of tail-cut samples. In this example, 8-week-old female mice were used for drug administration, and wild-type littermates were used as controls. All procedures related to animal behavior experiments were approved by the Institutional Animal Care and Use Committee of Pohang University of Science and Technology (POSTECH IACUC). All animal experiments were performed in accordance with the principles of the Animal Welfare Act, the PHS Animal Welfare Policy, and the NIH Guide for the Care and Use of Laboratory Animals. All mice were maintained under general conditions in the POSTECH animal facility according to institutional guidelines.
(§4) To evaluate the effect of DTMB on 5×FAD mice, DTMB (10 mg/kg) and vehicle (1% carboxymethylcellulose and 10% DMSO) were orally administered to four groups (wild type, wild type+DTMB, 5×FAD, and 5×FAD+DTMB) 6 days per week for 3 months.

[4] = system: 5×FAD Alzheimer's dementia-induced mice; experiment: Y maze test in 5×FAD mice; type: in vivo, mouse; details: DTMB 10 mg/kg orally, 12 weeks
Protocol: as §3, §4
The measuring device consists of three branches, each of which is 42 cm long, 3 cm wide, and 12 cm high, and the angle at which the three branches folded is 120°. […] Alternation behavior is defined as entering all three branches without overlapping and was calculated using the following mathematical formula.

Binding of PPARβ/δ ligand-binding protein to drug-bound CNBr beads [1]: binds to all subtypes of PPAR | Binding of PPARγ ligand-binding protein to drug-bound CNBr beads [2]: binds to all subtypes of PPAR | IC50 (RAW 264.7 macrophages; Mus musculus, RAW264.7, Griess reagent): 1.23 µM
SMILES: COc1ccc(-c2cc(=O)oc3c(C)c(OC(=O)[C@H](Cc4c[nH]c5ccccc45)NC(=O)OC(C)(C)C)ccc23)cc1 [DTMB, [4-(4-Methoxyphenyl)-8-methyl-2-oxochromen-7-yl](2S)-3-(1H-indol-3-yl)-2-[(2-methylpropan-2-yl)oxycarbonylamino]propanoate]
Cytotoxicity (MTT) (HMO6 cell line): no cytotoxicity | NO production inhibition compared with PPAR modulators (RAW 264.7 macrophages; at the same concentration): more effectively than WY14643, a PPARα modulator, and rosiglitazone, a PPARγ modulator | Body weight [3]: no change | Tissue weight [3]: no change | Alternation behavior (Y maze) [4]: increased statistically significantly

From patent US20260053778A1, “USE OF NOVEL PPAR ACTIVITY MODULATOR FOR PREVENTION, AMELIORATION OR TREATMENT OF DEGENERATIVE BRAIN DISEASES” (POSTECH RESEARCH AND BUSINESS DEVELOPMENT FOUNDATION, priority 2022, published 2026)
